Measurements reported in US20090042894A1, “NOVEL SPECIES OF ACROCARPOSPORA, A METHOD OF PREPARING IODININ, AND THE USES OF IODININ” (FOOD INDUSTRY RESEARCH AND DEVELOPMENT INSTITUTE, priority 2007, published 2009).

Columns and labels:
Assay type in all cases: cell-based
Conditions in all cases: iodinin 10 μg/ml, 72 hours
[1] = tested on: MRC-5 (embryonal lung, normal, human); assay: MTT assay, cytotoxic effect on MRC-5 cells
Experimental: (§1) Cell growth inhibitory effects were determined by an MTT assay after treating the cell lines with 2, 5, and 10 μg/ml of iodinin for 72 hours. Mean±SE of four independent experiments are shown. The cytotoxic activity of the compound iodinin was tested in vitro in MRC-5, AGS, HeLa, HepG2 and MCF-7 cell lines.
(§2) MRC-5 (embryonal lung, normal, human, BCRC60023), AGS (Human gastric adenocarcinoma, BCRC 60102), HeLa (Human cervical epithelioid carcinoma, BCRC 60005), HepG2 (Human hepatoblastoma, BCRC 60177), and MCF7 (human breast adenocarcinoma, BCRC 60436) were purchased from BCRC, Food Industry Research and Development Institute, Taiwan. […]
(§3) The cytotoxic activities of the compound, iodinin, against all cell lines were assayed by a modified MTT [3-(4,5-dimethylthiazole-2-yl)-2,5-diphenyltetrazolium bromide] […] After 3 days of incubation, the cell numbers for each of the cell lines were determined by the following MTT assay: 20 μl of 1 mg/ml of MTT were added to each well of the plates, and the plates were then incubated at 37° C. for 5 hours. Formazan crystals were redissolved in 100 μl of DMSO (Merck) for 10 minutes via shaking, and the plates were read immediately on an ELISA reader (Bio-Tek) at a wavelength of 540 nm (Mosmann, 1983).

[2] = tested on: AGS (Human gastric adenocarcinoma); assay: MTT assay, cytotoxic effect on AGS cells
Experimental: as §1, §2, §3

[3] = tested on: HeLa (Human cervical epithelioid carcinoma); assay: MTT assay, cytotoxic effect on HeLa cells
Experimental: as §1, §2, §3

[4] = tested on: HepG2 (Human hepatoblastoma); assay: MTT assay, cytotoxic effect on HepG2 cells
Experimental: as §1, §2, §3

[5] = tested on: MCF-7 (human breast adenocarcinoma); assay: MTT assay, cytotoxic effect on MCF-7 cells
Experimental: as §1, §2, §3

[O-][n+]1c2cccc(O)c2[n+]([O-])c2cccc(O)c21 [iodinin, 1,6-phenazinediol 5,10-dioxide]
percentage of cell survival [1]: 47%
percentage of cell survival [2]: 8%
percentage of cell survival [3]: 26%
percentage of cell survival [4]: 40%
percentage of cell survival [5]: 29%
